# Laboratory results published in ChEMBL document CHEMBL3785005, “Novel triazole hybrids of myrrhanone C, a natural polypodane triterpene: Synthesis, cytotoxic activity and cell based studies” (Eur J Med Chem, 2016).
# Tested on: HeLa
# Experiment: Cytotoxicity against human HeLa cells assessed as cell viability after 48 hrs by MTT assay
# Type: functional, cell-based
# Settings: not given
row,Structure (SMILES),IC50 [µM]
1,CC(C)=CCC/C(C)=C/CC/C(C)=C/CC[C@@H]1[C@@]2(C)CC/C(=N\OCc3cn(-c4cccc(O)c4)nn3)C(C)(C)[C@@H]2CC[C@@]1(C)O,13.5
2,CC(C)=CCC/C(C)=C/CC/C(C)=C/CC[C@@H]1[C@@]2(C)C/C(=C\c3ccc(OCc4cn(-c5ccccc5)nn4)cc3)C(=O)C(C)(C)[C@@H]2CC[C@@]1(C)O,36.3
3,CC(C)=CCC/C(C)=C/CC/C(C)=C/CC[C@@H]1[C@@]2(C)CC/C(=N\OCc3cn(-c4ccncc4)nn3)C(C)(C)[C@@H]2CC[C@@]1(C)O,18.8
4,CC(C)=CCC/C(C)=C/CC/C(C)=C/CC[C@@H]1[C@@]2(C)CC/C(=N\OCc3cn(-c4c(Cl)cc([N+](=O)[O-])cc4Cl)nn3)C(C)(C)[C@@H]2CC[C@@]1(C)O,23
5,CC(C)=CCC/C(C)=C/CC/C(C)=C/CC[C@@H]1[C@@]2(C)C/C(=C\c3ccc(OCc4cn(-c5cccc(Br)c5)nn4)cc3)C(=O)C(C)(C)[C@@H]2CC[C@@]1(C)O,37.1
6,CC(C)=CCC/C(C)=C/CC/C(C)=C/CC[C@@H]1[C@@]2(C)C/C(=C\c3ccc(OCc4cn(-c5c(Cl)cc([N+](=O)[O-])cc5Cl)nn4)cc3)C(=O)C(C)(C)[C@@H]2CC[C@@]1(C)O,36.9
7,CC(C)=CCC/C(C)=C/CC/C(C)=C/CC[C@@H]1[C@@]2(C)C/C(=C\c3ccc(OCc4cn(-c5ccncc5)nn4)cc3)C(=O)C(C)(C)[C@@H]2CC[C@@]1(C)O,77.6

# Tested on: MCF7
# Experiment: Cytotoxicity against human MCF7 cells assessed as cell viability after 48 hrs by MTT assay
# Type: functional, cell-based
# Settings: MCF7, 48 h
row,Structure (SMILES),IC50 [µM]
1,CC(C)=CCC/C(C)=C/CC/C(C)=C/CC[C@@H]1[C@@]2(C)CC/C(=N\OCc3cn(-c4cccc(O)c4)nn3)C(C)(C)[C@@H]2CC[C@@]1(C)O,9.9
2,CC(C)=CCC/C(C)=C/CC/C(C)=C/CC[C@@H]1[C@@]2(C)C/C(=C\c3ccc(OCc4cn(-c5ccccc5)nn4)cc3)C(=O)C(C)(C)[C@@H]2CC[C@@]1(C)O,23
3,CC(C)=CCC/C(C)=C/CC/C(C)=C/CC[C@@H]1[C@@]2(C)CC/C(=N\OCc3cn(-c4ccncc4)nn3)C(C)(C)[C@@H]2CC[C@@]1(C)O,12.6
4,CC(C)=CCC/C(C)=C/CC/C(C)=C/CC[C@@H]1[C@@]2(C)CC/C(=N\OCc3cn(-c4c(Cl)cc([N+](=O)[O-])cc4Cl)nn3)C(C)(C)[C@@H]2CC[C@@]1(C)O,16.6
5,CC(C)=CCC/C(C)=C/CC/C(C)=C/CC[C@@H]1[C@@]2(C)C/C(=C\c3ccc(OCc4cn(-c5cccc(Br)c5)nn4)cc3)C(=O)C(C)(C)[C@@H]2CC[C@@]1(C)O,61
6,CC(C)=CCC/C(C)=C/CC/C(C)=C/CC[C@@H]1[C@@]2(C)C/C(=C\c3ccc(OCc4cn(-c5c(Cl)cc([N+](=O)[O-])cc5Cl)nn4)cc3)C(=O)C(C)(C)[C@@H]2CC[C@@]1(C)O,27.1
7,CC(C)=CCC/C(C)=C/CC/C(C)=C/CC[C@@H]1[C@@]2(C)C/C(=C\c3ccc(OCc4cn(-c5ccncc5)nn4)cc3)C(=O)C(C)(C)[C@@H]2CC[C@@]1(C)O,37.5

# Tested on: not listed separately
# Experiment: Cytotoxicity against human DU145 cells assessed as cell viability after 48 hrs by MTT assay
# Type: functional, cell-based
# Settings: DU-145, 48 h
row,Structure (SMILES),IC50 [µM]
1,CC(C)=CCC/C(C)=C/CC/C(C)=C/CC[C@@H]1[C@@]2(C)CC/C(=N\OCc3cn(-c4cccc(O)c4)nn3)C(C)(C)[C@@H]2CC[C@@]1(C)O,17.5
2,CC(C)=CCC/C(C)=C/CC/C(C)=C/CC[C@@H]1[C@@]2(C)C/C(=C\c3ccc(OCc4cn(-c5ccccc5)nn4)cc3)C(=O)C(C)(C)[C@@H]2CC[C@@]1(C)O,21
3,CC(C)=CCC/C(C)=C/CC/C(C)=C/CC[C@@H]1[C@@]2(C)CC/C(=N\OCc3cn(-c4ccncc4)nn3)C(C)(C)[C@@H]2CC[C@@]1(C)O,17.4
4,CC(C)=CCC/C(C)=C/CC/C(C)=C/CC[C@@H]1[C@@]2(C)CC/C(=N\OCc3cn(-c4c(Cl)cc([N+](=O)[O-])cc4Cl)nn3)C(C)(C)[C@@H]2CC[C@@]1(C)O,16.4
5,CC(C)=CCC/C(C)=C/CC/C(C)=C/CC[C@@H]1[C@@]2(C)C/C(=C\c3ccc(OCc4cn(-c5cccc(Br)c5)nn4)cc3)C(=O)C(C)(C)[C@@H]2CC[C@@]1(C)O,40.5
6,CC(C)=CCC/C(C)=C/CC/C(C)=C/CC[C@@H]1[C@@]2(C)C/C(=C\c3ccc(OCc4cn(-c5c(Cl)cc([N+](=O)[O-])cc5Cl)nn4)cc3)C(=O)C(C)(C)[C@@H]2CC[C@@]1(C)O,20.9
7,CC(C)=CCC/C(C)=C/CC/C(C)=C/CC[C@@H]1[C@@]2(C)C/C(=C\c3ccc(OCc4cn(-c5ccncc5)nn4)cc3)C(=O)C(C)(C)[C@@H]2CC[C@@]1(C)O,25.7

# Tested on: HepG2
# Experiment: Cytotoxicity against human HepG2 cells assessed as cell viability after 48 hrs by MTT assay
# Type: functional, cell-based
# Settings: HepG2, 48 h
row,Structure (SMILES),IC50 [µM]
1,CC(C)=CCC/C(C)=C/CC/C(C)=C/CC[C@@H]1[C@@]2(C)CC/C(=N\OCc3cn(-c4cccc(O)c4)nn3)C(C)(C)[C@@H]2CC[C@@]1(C)O,21.2
2,CC(C)=CCC/C(C)=C/CC/C(C)=C/CC[C@@H]1[C@@]2(C)C/C(=C\c3ccc(OCc4cn(-c5ccccc5)nn4)cc3)C(=O)C(C)(C)[C@@H]2CC[C@@]1(C)O,126
3,CC(C)=CCC/C(C)=C/CC/C(C)=C/CC[C@@H]1[C@@]2(C)CC/C(=N\OCc3cn(-c4ccncc4)nn3)C(C)(C)[C@@H]2CC[C@@]1(C)O,22
4,CC(C)=CCC/C(C)=C/CC/C(C)=C/CC[C@@H]1[C@@]2(C)CC/C(=N\OCc3cn(-c4c(Cl)cc([N+](=O)[O-])cc4Cl)nn3)C(C)(C)[C@@H]2CC[C@@]1(C)O,34.9
5,CC(C)=CCC/C(C)=C/CC/C(C)=C/CC[C@@H]1[C@@]2(C)C/C(=C\c3ccc(OCc4cn(-c5cccc(Br)c5)nn4)cc3)C(=O)C(C)(C)[C@@H]2CC[C@@]1(C)O,23.7
6,CC(C)=CCC/C(C)=C/CC/C(C)=C/CC[C@@H]1[C@@]2(C)C/C(=C\c3ccc(OCc4cn(-c5c(Cl)cc([N+](=O)[O-])cc5Cl)nn4)cc3)C(=O)C(C)(C)[C@@H]2CC[C@@]1(C)O,25.1
7,CC(C)=CCC/C(C)=C/CC/C(C)=C/CC[C@@H]1[C@@]2(C)C/C(=C\c3ccc(OCc4cn(-c5ccncc5)nn4)cc3)C(=O)C(C)(C)[C@@H]2CC[C@@]1(C)O,105

# Tested on: A549
# Experiment: Cytotoxicity against human A549 cells assessed as cell viability after 48 hrs by MTT assay
# Type: functional, cell-based
# Settings: A549, 48 h
row,Structure (SMILES),IC50 [µM]
1,CC(C)=CCC/C(C)=C/CC/C(C)=C/CC[C@@H]1[C@@]2(C)CC/C(=N\OCc3cn(-c4cccc(O)c4)nn3)C(C)(C)[C@@H]2CC[C@@]1(C)O,12.8
2,CC(C)=CCC/C(C)=C/CC/C(C)=C/CC[C@@H]1[C@@]2(C)C/C(=C\c3ccc(OCc4cn(-c5ccccc5)nn4)cc3)C(=O)C(C)(C)[C@@H]2CC[C@@]1(C)O,100
3,CC(C)=CCC/C(C)=C/CC/C(C)=C/CC[C@@H]1[C@@]2(C)CC/C(=N\OCc3cn(-c4ccncc4)nn3)C(C)(C)[C@@H]2CC[C@@]1(C)O,13
4,CC(C)=CCC/C(C)=C/CC/C(C)=C/CC[C@@H]1[C@@]2(C)CC/C(=N\OCc3cn(-c4c(Cl)cc([N+](=O)[O-])cc4Cl)nn3)C(C)(C)[C@@H]2CC[C@@]1(C)O,11.2
5,CC(C)=CCC/C(C)=C/CC/C(C)=C/CC[C@@H]1[C@@]2(C)C/C(=C\c3ccc(OCc4cn(-c5cccc(Br)c5)nn4)cc3)C(=O)C(C)(C)[C@@H]2CC[C@@]1(C)O,33.8
6,CC(C)=CCC/C(C)=C/CC/C(C)=C/CC[C@@H]1[C@@]2(C)C/C(=C\c3ccc(OCc4cn(-c5c(Cl)cc([N+](=O)[O-])cc5Cl)nn4)cc3)C(=O)C(C)(C)[C@@H]2CC[C@@]1(C)O,34.7
7,CC(C)=CCC/C(C)=C/CC/C(C)=C/CC[C@@H]1[C@@]2(C)C/C(=C\c3ccc(OCc4cn(-c5ccncc5)nn4)cc3)C(=O)C(C)(C)[C@@H]2CC[C@@]1(C)O,34
